The results in this text go back to patent US5071849A, “Dihydropyrimidothiazine derivatives” (priority 1989, dated 1991).

Data set [1] has as its system carrageen - induced oedema. Briefly: Inhibition of carrageen-induced oedema on rats. The class given is in vivo. Particulars: for ED30: Rattus norvegicus, po, read-out: ID30 (dose resulting in an inhibition of 30%); for Therapeutical index: Table III, LD50 and ID30. As for the experimental part: The antiinflammatory effect of the novel compounds of the invention was investigated on rats weighing 150 to 180 g. 0.1 ml of a 1 per cent carrageen suspension was injected subcutaneously into the plantar region of one of the hind paws. Rats were fasted for 12 hours and received drinking water ad libitum. One hour before treatment with the test compound animals were hydrated orally with 30 ml/kg of tap water. The test compounds or the vehicle were administered p.o. in a volume of 10 ml/kg, then two hours later carrageen was applied. The volume of the treated paw was measured by mercury-plethysmometer before and 3 hours after injection in such a way that displacement of the liquid arising from the volume alteration was indicated on a millimeter scale. The volumes of the treated paws were compared with those of the control group.

A further data set in a line: in vivo. Particulars: mouse, po. The procedure: White mice belonging to the CFLP strain (body weight 18-22 g; both male and female) are used, 10 animals for each dose. The test compound is administered orally in a volume of 20 ml/kg. […] The mice are kept in a plastic cage at room temperature. The animals get tap water and standard mouse fodder ad libitum.
The subject of the next data set is Hexobarbital narcosis. Briefly: Hexobarbital narcosis on mice. Particulars: for ED50: Mus musculus, po, mice, p.o., 1 hour before Hexobarbital 40 mg/kg i.v., sleeping time more than 2.5 times longer than control; for Therapeutical index: Table IV, hexobarbital narcosis on mice. In kind it is in vivo. As for the experimental part:
Groups consisting of 6 mice are used for each dose. The animals are treated orally with the test compound, whereby sleeping is induced 1 hour later by administering a 40 mg/kg i.v. dose of Hexobarbital both to the test and control groups.
ED50 values are calculated from the thus-transformed data.

Data set [2] deals with experimental coronaria insufficiency induced with vasopressin. Briefly: Antianginal effect: vasopressin-induced experimental coronaria insufficiency, ECG wave T. The class given is in vivo. Particulars: Rattus norvegicus; rats, iv., 2 minutes prior to vasopressin. As for the experimental part:
Male rats of 180-220 g body weight were narcotised with chloralese-urethane (70/700 mg/kg ip.). The ECG was registered with needle electrodes in standard II leading. The experimental coronaria insufficiency was induced with vasopressin (4 NE/kg i.v.). The height of wave T in ECG was measured before and after the administration of vasopressin in both the control and treated groups. Test compounds were administered intravenously 2 minutes prior to the treatment with vasopressin.

Where [3] appears, read: rats, p.o., two hours before carrageen, paw volume 3 hours after injection.

The structures appear in SMILES notation. Where two headings read alike, the source gives them in different places. Where only a bound is given, the exact number is not on record here.

With `CC(=O)Oc1ccccc1C(=O)O` [Acetylsalicylic acid, reference compound], the ED30 in data set [1] (3 h) is 200 mg/kg. Moreover, the Therapeutical index in data set [1] is 6.8.
`CCOC(=O)C1=C(C)N=C2SCCCN2C1c1ccccc1` (stereo not drawn) [Example 1, Ethyl-(6-phenyl-8-methyl-3,4-dihydro-2H,6H-pyrimido-[2,1-b][1,3]thiazine-7-carboxylate)]: in “in vivo”, the LD50 at 336 h turned out to be 580 mg/kg.
Same read-out and setting: with `CCOC(=O)C1=C(C)N=C2SCCCN2C1c1c(F)cccc1Cl` (stereo not drawn) [Example 2, Ethyl-[6-(2-fluoro-6-chlorophenyl)-8-methyl-3,4-dihydro-2H,6H-pyrimido[2,1-b][1,3]thiazine-7-carboxylate]] the figure was 170 mg/kg; with `CCOC(=O)C1=C(C)N=C2SCCCN2C1c1ccc(Cl)c(Cl)c1` (stereo not drawn) [Example 3, Ethyl-[6-(3,4-dichlorophenyl)-8-methyl-3,4-dihydro-2H,6H-pyrimido[2,1-b][1,3]thiazine-7-carboxylate]], 1000 mg/kg.
Same read-out and setting: the result for `COC(=O)C1=C(C)N=C2SCCCN2C1c1cccc([N+](=O)[O-])c1` (stereo not drawn) [Example 4, Methyl-[6-(3-nitrophenyl)-8-methyl-3,4-dihydro-2H,6H-pyrimido[2,1-b][1,3]thiazine-7-carboxylate]] reads 370 mg/kg.
In turn, `CC1=C(C(=O)Nc2ccccc2)C(c2ccccc2)N2CCCSC2=N1` (stereo not drawn) [Example 5, 6-Phenyl-8-methyl-3,4-dihydro-2H,6H-pyrimido[2,1-b][1,3]thiazine-7-carboxylic anilide] yielded an LD50 at 336 h in “in vivo” of 700 mg/kg.
In the data set on Hexobarbital narcosis, `CC1=C(C(=O)Nc2ccccc2)C(c2c(F)cccc2Cl)N2CCCSC2=N1` (stereo not drawn) [Example 6, 6-(2-Fluoro-6-chlorophenyl)-8-methyl-3,4-dihydro-2H,6H-pyrimido[2,1-b][1,3]thiazine-7-carboxylic anilide] returned a 50% effective dose (ED50) of 25 mg/kg and a Therapeutical index of 40.0. In the data set “in vivo”, this molecule displayed an LD50 at 336 h greater than 1000 mg/kg.
In “in vivo”, `CCOC(=O)C1=C(C)N=C2SCCCN2C1c1ccc(OC)cc1` (stereo not drawn) [Example 7, Ethyl-[8-methyl-6-(4-methoxyphenyl)-3,4-dihydro2H,6H-pyrimido[2,1-b][1,3]thiazine-7-carboxylate]] showed a median lethal dose (LD50) at 336 h of 600 mg/kg. In data set [2], this molecule had an ED50 of 1.87 mg/kg.
Molecule `COC(=O)C1=C(C)N=C2SCCCN2C1c1ccc(Cl)c([N+](=O)[O-])c1` (stereo not drawn) [Example 8] displayed an LD50 at 336 h in “in vivo” of 700 mg/kg. This molecule also showed an ED50 in data set [2] of 1.21 mg/kg.
`COC(=O)C1=C(C)N=C2SCC(C)CN2C1c1ccc(Cl)c([N+](=O)[O-])c1` (stereo not drawn) [Example 9]: the LD50 at 336 h in “in vivo” was greater than 1000 mg/kg.
On to `COC(=O)C1=C(C)N=C2SCC(C)CN2C1c1cccc([N+](=O)[O-])c1` (stereo not drawn) [Example 10], for which, in the data set on Hexobarbital narcosis, the ED50 amounted to 39 mg/kg and the Therapeutical index amounted to 25.6. The molecule further gave an LD50 at 336 h in “in vivo” greater than 1000 mg/kg.
In the data set with Hexobarbital narcosis, `CCOC(=O)C1=C(C)N=C2SCCCN2C1c1ccc(Br)cc1` (stereo not drawn) [Example 11, Ethyl-[6-(4-bromophenyl)-8-methyl-3,4-dihydro-2H,6H-pyrimido[2,1-b][1,3]thiazine-7-carboxylate]] registered an ED50 of roughly 200 mg/kg and a Therapeutical index of 5.0. The LD50 at 336 h in “in vivo” was greater than 1000 mg/kg.
As for `CCOC(=O)C1=C(c2ccccc2)N=C2SCCCN2C1c1c(F)cccc1Cl` (stereo not drawn) [Example 12], the LD50 at 336 h in “in vivo” is greater than 1000 mg/kg.
As to `CCOC(=O)C1=C(c2ccccc2)N=C2SCCCN2C1c1ccc([N+](=O)[O-])cc1` (stereo not drawn) [Example 13, Ethyl-[8-phenyl-6-(4-nitrophenyl)-3,4-dihydro-2H,6H-pyrimido[2,1-b][1,3]thiazine-7-carboxylate]], in the data set with Hexobarbital narcosis, the ED50 is roughly 200 mg/kg and the Therapeutical index was 5.0. This molecule also returned an LD50 at 336 h in “in vivo” of 1000 mg/kg.
On to `COC(=O)C1=C(C)N=C2SCCCN2C1C` (stereo not drawn) [Example 14, Methyl-(6,8-dimethyl-3,4-dihydro-2H,6H-pyrimido-[2,1-b][1,3]thiazine-7-carboxylate)], for which the LD50 at 336 h in the data set “in vivo” was 400 mg/kg. In addition, the ED30 in data set [1] (setting [3]) is 10 mg/kg. Besides, the Therapeutical index in data set [1] is reported as 40.
For the molecule `COC(=O)C1=C(C)N=C2SCCCN2C1c1ccc(OC)cc1` (stereo not drawn) [Example 15, Methyl-[8-methyl-6-(4-methoxyphenyl)-3,4-dihydro-2H,6H-pyrimido[2,1-b][1,3]thiazine-7-carboxylate]], the LD50 at 336 h in “in vivo” is greater than 1000 mg/kg. Moreover, the ED30 in data set [1] (setting [3]) worked out at 70 mg/kg. Also, in data set [1], the Therapeutical index is listed as greater than 14.3.
Molecule `COC(=O)C1=C(C)N=C2SCCCN2C1c1ccc(Cl)c(Cl)c1` (stereo not drawn) [Example 16, Methyl-[6-(3,4-dichlorophenyl)-8-methyl-3,4-dihydro-2H,6H-pyrimido[2,1-b][1,3]thiazine-7-carboxylate]] gave an LD50 at 336 h in the data set “in vivo” of 1000 mg/kg. Also, in data set [1] (setting [3]), the ED30 was 120 mg/kg. This molecule also yielded a Therapeutical index in data set [1] of 8.3. The same molecule returned an ED50 in data set [2] of roughly 0.81 mg/kg.
Regarding `COC(=O)C1=C(C)N=C2SCCCN2C1c1cc(OC)c(OC)c(OC)c1` (stereo not drawn) [Example 18, Methyl-[8-methyl-6-(3,4,5-trimethoxyphenyl)-3,4-dihydro-2H,6H-pyrimido[2,1-b][1,3]thiazine-7-carboxylate]], the LD50 at 336 h in “in vivo” is greater than 1000 mg/kg. Further, the ED30 in data set [1] (setting [3]) was 110 mg/kg. The Therapeutical index in data set [1] is on record as greater than 9.1.
Turning to `CCOC(=O)C1=C(c2ccccc2)N=C2SCCCN2C1c1ccc(OC)cc1` (stereo not drawn) [Example 19, Ethyl-[8-phenyl-6-(4-methoxyphenyl)-3,4-dihydro-2H,6H-pyrimido[2,1-b][1,3]thiazine-7-carboxylate]], the 50% effect level in data set [2] (ED50) was put at a dose of 1.45 mg/kg.
As for `CCOC(=O)C1=C(C)N=C2SCCCN2C1c1ccc(N(C)C)cc1` (stereo not drawn) [Example 22, Ethyl-[6-(4-dimethylaminophenyl)-8-methyl-3,4-dihydro-2H,6H-pyrimido[2,1-b][1,3]thiazine-7-carboxylate]], the LD50 at 336 h in the data set “in vivo” was found to be 700 mg/kg. In addition, the ED30 in data set [1] (setting [3]) amounted to 10 mg/kg. Besides, the Therapeutical index in data set [1] is 70.
`COC(=O)C1=C(C)N=C2SCCCN2C1c1ccccc1OC` (stereo not drawn) [Example 25, Methyl-[8-methyl-6-(2-methoxyphenyl)-3,4-dihydro-2H,6H-pyrimido[2,1-b][1,3]thiazine-7-carboxylate]]: the LD50 at 336 h in the data set “in vivo” was in the range of 100 to 500 mg/kg. Further, the ED30 in data set [1] (setting [3]) is 10 mg/kg. In addition, in data set [1], the Therapeutical index is on record as 10-50.
Turning to `COc1ccc2c(c1)c(CC(=O)O)c(C)n2C(=O)c1ccc(Cl)cc1` [Indomethacin, reference compound], the ED30 in data set [1] (3 h) is 3 mg/kg. In data set [1], this molecule displayed a Therapeutical index of 7.3.
In the data set with Hexobarbital narcosis, `CCCC(C)(COC(N)=O)COC(N)=O` [Meprobamate, reference compound] showed an ED50 of 260 mg/kg and a Therapeutical index of 4.2.
`CC(=O)Nc1ccc(O)cc1` [Paracetamol, reference compound] registered a 50% lethal dose (LD50) at 336 h in “in vivo” of 1180 mg/kg. Also, the ED30 in data set [1] (setting [3]) came to 200 mg/kg. Further, in data set [1], the Therapeutical index is 5.9.
As for `CCCCC1C(=O)N(c2ccccc2)N(c2ccccc2)C1=O` [Phenylbutazone, reference compound], the ED30 in data set [1] (setting [3]) was 40 mg/kg.
With `CC(Cc1ccccc1)NCCC(c1ccccc1)c1ccccc1` (stereo not drawn) [Prenylamine, reference compound], the ED50 in data set [2] was 6.5 mg/kg.

The LD50 is the dose expected to kill half of the subjects tested. High values mean a less toxic substance, low ones a more toxic substance. The term ED50 denotes the dose that gives a 50% effect, or the effect in half of the subjects. The low end stands for greater potency, the high end for weaker potency.
